Data set [1] has as its system A549: human non-small-cell lung carcinoma. Put plainly: In vitro cytotoxicity / antiproliferation, A549. The class given is cell-based. As for the experimental part:
(§1) The in vitro cytotoxicity of boronic derivatives of hydroxamates was tested against various cancer cell lines; the results are provided in Table 1.

The test system of a further data set is MCF-7 tumor xenograft. Nature of the data set: In vivo efficacy in MCF-7 tumor xenograft model in mice. Particulars: 10 mg/kg/day subcutaneous; for effect on tumor growth (in words): compared with vehicle group; for average tumor volume: day 15; for Tumor volume: day 24, MCF-7 xenograft mice.
The test system of data set [2] is MDA-MB-231: human breast adenocarcinoma. Put plainly: In vitro cytotoxicity / antiproliferation, MDA-MB-231. The class given is cell-based. The conditions noted are these: MDA-MB-231, read-out: Antiproliferation activity (IC50).
In data set [3] the test system is MCF-7: human breast adenocarcinoma. Put plainly: In vitro cytotoxicity / antiproliferation, MCF-7. The conditions noted are these: MCF7. The class given is cell-based. As to the method:
as §1

Data set [4] concerns HeLa: human epitheloid cervix carcinoma. Put plainly: In vitro cytotoxicity / antiproliferation, HeLa. It counts as cell-based. As to the method: as §1
Data set [5] concerns SK-MEL-28: human melanoma. Put plainly: In vitro cytotoxicity / antiproliferation, SK-MEL-28. It counts as cell-based. Particulars: SK-MEL-28, read-out: Antiproliferation activity (IC50).
Data set [6] deals with SK-OV-3: human ovarian cancer. Put plainly: In vitro cytotoxicity / antiproliferation, SK-OV-3. The class given is cell-based.
The test system of data set [7] is NCI-H460: human non-small-cell lung cancer. Nature of the data set: In vitro cytotoxicity / antiproliferation, NCI-H460. The class given is cell-based. The conditions noted are these: NCI-H460, read-out: Antiproliferation activity (IC50).
The nature of data set [8]: In vivo pharmacokinetics in mice after intraperitoneal injection (plasma). The conditions noted are these: single dose 10 mg/kg IP. As to the method:
Pharmacokinetic studies of compound 3 in mice were conducted.

The nature of data set [9]: Concentration in tumor tissue of MCF-7 xenograft mice. The class given is in vivo. Particulars: after 24 days at 10 mg/kg/day subcutaneous.
Data set [10] has as its target Histone deacetylase (HDAC). Nature of the data set: Histone deacetylase activity assay kit (Fluorometric) ab156064. The class given is biochemical. Particulars: 20 min incubation; read-out: HDAC inhibitory activity EC50.
For a further data set, the system named is MDA-MB-231 cells. Put plainly: In vitro pharmacokinetics: concentrations in culture media after incubation with MDA-MB-231 cells. It counts as in vitro ADME, human. Particulars: 1-day incubation with MDA-MB-231 cells.

Molecules are shown by their SMILES. Where “and” joins values, the source holds several entries; their conditions need not be identical. Equal values may be shown once.

As usually defined, the EC50 is the concentration giving half of the maximal effect.

Take `O=C(/C=C/c1cccc(S(=O)(=O)Nc2ccccc2)c1)NO` [Belinostat, reference compound]: the IC50 in [1] stood at 0.0766 µM; in [2], 0.0616 µM; in [3] it was 96.4 nM; in data set [4] it was 0.0865 µM. Also, the “TGI (inhibition of tumor growth)” value in the data set with MCF-7 tumor xenograft (24 days) is on record as 77.7%. The “effect on tumor growth (in words)” value with MCF-7 tumor xenograft was “potent inhibitory activity against the growth of tumor”. Moreover, in the data set on MCF-7 tumor xenograft, the average tumor volume amounted to 167 mm^3. In addition, the Tumor volume in the data set with MCF-7 tumor xenograft is 194 mm^3 and 193.68 ± 29.79 mm^3.

In the case of `Cn1c(CCCC(=O)O)nc2cc(N(CCCl)CCCl)ccc21` [Bendamustine, reference compound], the IC50 in data set [5] is 149 µM; in data set [6] it was 33.4 µM; in data set [7], 45300 nM; in data set [2] it was 37.5 µM.

Regarding `CC1(C)OB(c2ccc(CONC(=O)CCCCCCC(=O)Nc3ccccc3)cc2)OC1(C)C` [Compound 1], the results for the IC50 in [5], in [6] and in data set [2] were 13.5 µM, 55.2 µM and 423 µM, respectively.

As to `CC1(C)OB(c2ccc(CONC(=O)/C=C/c3cccc(S(=O)(=O)Nc4ccccc4)c3)cc2)OC1(C)C` [Compound 3], the “maximum concentration of compound 95 relative to maximum concentration achieved by belinostat” value in [8] is reported as “about forty times”. Further, the “concentration of belinostat and compound 95 added together in tumor tissue, relative to belinostat group” value in data set [9] is recorded as “five times greater”. Further, the IC50 in [5] is 0.678 µM; in data set [1] it was 0.453 µM; in data set [7] it was 430 nM; in data set [2], 0.303 µM; in data set [3], 1460 nM; in data set [4], 0.273 µM. The “T/C (tumor volume ratio)” value in the data set with MCF-7 tumor xenograft (24 days) is recorded as 14.6%. In addition, the “TGI (inhibition of tumor growth)” value in the data set on MCF-7 tumor xenograft (24 days) was 85.3%. The “effect on tumor growth (in words)” value with MCF-7 tumor xenograft is recorded as “resulted in tumor remission”; with MCF-7 tumor xenograft (listed as compound 3), “potent inhibitory activity against the growth of tumor”. This molecule had an average tumor volume with MCF-7 tumor xenograft of 153 mm^3. In the data set with MCF-7 tumor xenograft, this molecule came in with a Tumor volume of 127 mm^3. Further, the EC50 in data set [10] was 350 nM. In the data set on MDA-MB-231 cells, the “conversion of compound 3 in culture media (in words)” value was “completely converted to compound 95 and partially to belinostat”.

`CCN(CC)Cc1ccc2cc(COC(=O)Nc3ccc(C(=O)NOCc4ccc(B5OC(C)(C)C(C)(C)O5)cc4)cc3)ccc2c1` [Compound 4]: the IC50 in [5] was 0.377 µM; in data set [6], 0.296 µM; in data set [7] it was 154 nM; in data set [2], 0.321 µM.

On to `CN(C)Cc1ccc(S(=O)(=O)n2ccc(/C=C/C(=O)NOCc3ccc(B4OC(C)(C)C(C)(C)O4)cc3)c2)cc1` [Compound 5], for which the IC50 in [1], in [2] and in data set [4] was above 10 µM throughout.

With `Cn1c(CCCC(=O)NOCc2ccc(B3OC(C)(C)C(C)(C)O3)cc2)nc2cc(N(CCCl)CCCl)ccc21` [Compound 7], the IC50 in [5] was 0.373 µM; in [6], 1.84 µM; in data set [7], 1220 nM; in data set [2] it was 3.33 µM.

In the case of `COc1ccc(C(=O)NOCc2ccc(B3OC(C)(C)C(C)(C)O3)cc2)cc1` [Compound 10], the IC50 in data set [1], in data set [2] and in data set [4] was above 10 µM in each case.

Turning to `CC1=C(CC(=O)NOCc2ccc(B3OC(C)(C)C(C)(C)O3)cc2)c2cc(F)ccc2/C1=C/c1ccc([S+](C)[O-])cc1` (stereo not drawn) [Compound 11], the IC50 is 77.4 µM in [5]; 696 µM in [1]; 19.4 µM in data set [6]; 1010 nM in [7]; 20.1 µM in [2]; 277 µM in data set [4].

Regarding `COc1cc(C(=O)NOCc2ccc(B3OC(C)(C)C(C)(C)O3)cc2)cc(OC)c1OC` [Compound 13], the IC50 in data set [1], in data set [2] and in [4] was above 10 µM each time.

As to `CC(C)Cc1ccc(C(C)C(=O)NOCc2ccc(B3OC(C)(C)C(C)(C)O3)cc2)cc1` (stereo not drawn) [Compound 14], the IC50 in [1], in data set [2] and in [4] was above 10 µM each time.

Consider `CC1(C)OB(c2ccc(CONC(=O)c3cc4ccccc4oc3=O)cc2)OC1(C)C` [Compound 15], for which the IC50 in [1], in [2] and in data set [4] was above 10 µM each time.

For `COc1ccc(C(=O)NOCc2ccc(B3OC(C)(C)C(C)(C)O3)cc2)cc1OC` [Compound 16], the IC50 in data set [1], in [2] and in data set [4] was above 10 µM each time.

Consider `CCN(CC)Cc1ccc2cc(COC(=O)Nc3ccc(C(=O)NO)cc3)ccc2c1` [Givinostat, reference compound], for which the IC50 is 0.0913 µM in [5], 103 nM in [7] and 0.119 µM in data set [2].

As to `CC1=C(CC(=O)O)c2cc(F)ccc2/C1=C\c1ccc([S+](C)[O-])cc1` (stereo not drawn) [Sulindac, reference compound], the IC50 was 1400 µM in data set [5]; 20400 µM in [1]; 109 µM in data set [6]; 41900 nM in data set [7]; 1400 µM in data set [2]; 458 µM in [4].

For the origin of these results see patent US11046715B2, “Boronic derivatives of hydroxamates as anticancer agents” (Xavier University of Louisiana, priority 2016, dated 2021).
